From ChEMBL document CHEMBL1157938, “Cytotoxicity and inhibition of DNA topoisomerase I of polyhydroxylated triterpenoids and triterpenoid glycosides” (Bioorg Med Chem Lett, 2010)
Calls of active or inactive are those of the source. The calls are words filed in the database; no cut-off is given here.

Assays:
A549 = assay: Cytotoxicity against human A549 cells at 25 uM after 48 hrs by WST8 assay; format: functional, cell-based
PC-3 = assay: Cytotoxicity against human PC3 cells at 25 uM after 48 hrs by WST8 assay; format: functional, cell-based
HL-60 = assay: Cytotoxicity against human HL60 cells at 25 uM after 48 hrs by WST8 assay; format: functional, cell-based
PANC-1 = assay: Cytotoxicity against human PANC1 cells at 25 uM after 48 hrs by WST8 assay; format: functional, cell-based
MRC5 = assay: Cytotoxicity against human MRC5 cells at 25 uM after 48 hrs by WST8 assay; format: cell-based; conditions: mrc5, 48 h
DNA topoisomerase 1 = target: T1, DNA topoisomerase 1 (Homo sapiens, UniProt P11387); assay: Inhibition of human DNA topoisomerase 1-mediated relaxation of supercoiled DNA by gel electrophoresis
T1 sequence (P11387 whole entry): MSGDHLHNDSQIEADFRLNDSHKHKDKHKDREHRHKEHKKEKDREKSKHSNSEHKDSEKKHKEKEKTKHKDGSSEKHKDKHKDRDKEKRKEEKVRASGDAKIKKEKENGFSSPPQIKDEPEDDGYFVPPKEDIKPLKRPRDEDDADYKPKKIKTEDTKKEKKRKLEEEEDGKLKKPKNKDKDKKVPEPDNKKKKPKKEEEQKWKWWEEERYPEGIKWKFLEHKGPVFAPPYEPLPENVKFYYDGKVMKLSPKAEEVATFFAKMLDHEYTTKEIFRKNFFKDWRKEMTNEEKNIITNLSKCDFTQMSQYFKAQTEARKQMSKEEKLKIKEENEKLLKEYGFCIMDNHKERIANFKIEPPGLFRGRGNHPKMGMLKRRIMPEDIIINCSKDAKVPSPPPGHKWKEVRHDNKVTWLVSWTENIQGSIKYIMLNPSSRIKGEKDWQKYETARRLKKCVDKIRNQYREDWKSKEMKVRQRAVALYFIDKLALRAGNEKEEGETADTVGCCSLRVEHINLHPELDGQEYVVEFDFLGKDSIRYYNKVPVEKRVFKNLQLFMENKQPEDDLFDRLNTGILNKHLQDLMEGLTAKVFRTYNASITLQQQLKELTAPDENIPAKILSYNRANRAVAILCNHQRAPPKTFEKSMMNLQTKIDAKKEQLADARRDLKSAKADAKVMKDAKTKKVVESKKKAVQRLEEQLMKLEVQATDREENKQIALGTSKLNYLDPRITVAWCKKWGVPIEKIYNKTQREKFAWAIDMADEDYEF

[1] = target: DNA topoisomerase 2-alpha (Homo sapiens, UniProt P11388); assay: Inhibition of human DNA topoisomerase 2-mediated relaxation of supercoiled DNA by gel electrophoresis
DNA topoisomerase 2-alpha, sequence (P11388 whole entry): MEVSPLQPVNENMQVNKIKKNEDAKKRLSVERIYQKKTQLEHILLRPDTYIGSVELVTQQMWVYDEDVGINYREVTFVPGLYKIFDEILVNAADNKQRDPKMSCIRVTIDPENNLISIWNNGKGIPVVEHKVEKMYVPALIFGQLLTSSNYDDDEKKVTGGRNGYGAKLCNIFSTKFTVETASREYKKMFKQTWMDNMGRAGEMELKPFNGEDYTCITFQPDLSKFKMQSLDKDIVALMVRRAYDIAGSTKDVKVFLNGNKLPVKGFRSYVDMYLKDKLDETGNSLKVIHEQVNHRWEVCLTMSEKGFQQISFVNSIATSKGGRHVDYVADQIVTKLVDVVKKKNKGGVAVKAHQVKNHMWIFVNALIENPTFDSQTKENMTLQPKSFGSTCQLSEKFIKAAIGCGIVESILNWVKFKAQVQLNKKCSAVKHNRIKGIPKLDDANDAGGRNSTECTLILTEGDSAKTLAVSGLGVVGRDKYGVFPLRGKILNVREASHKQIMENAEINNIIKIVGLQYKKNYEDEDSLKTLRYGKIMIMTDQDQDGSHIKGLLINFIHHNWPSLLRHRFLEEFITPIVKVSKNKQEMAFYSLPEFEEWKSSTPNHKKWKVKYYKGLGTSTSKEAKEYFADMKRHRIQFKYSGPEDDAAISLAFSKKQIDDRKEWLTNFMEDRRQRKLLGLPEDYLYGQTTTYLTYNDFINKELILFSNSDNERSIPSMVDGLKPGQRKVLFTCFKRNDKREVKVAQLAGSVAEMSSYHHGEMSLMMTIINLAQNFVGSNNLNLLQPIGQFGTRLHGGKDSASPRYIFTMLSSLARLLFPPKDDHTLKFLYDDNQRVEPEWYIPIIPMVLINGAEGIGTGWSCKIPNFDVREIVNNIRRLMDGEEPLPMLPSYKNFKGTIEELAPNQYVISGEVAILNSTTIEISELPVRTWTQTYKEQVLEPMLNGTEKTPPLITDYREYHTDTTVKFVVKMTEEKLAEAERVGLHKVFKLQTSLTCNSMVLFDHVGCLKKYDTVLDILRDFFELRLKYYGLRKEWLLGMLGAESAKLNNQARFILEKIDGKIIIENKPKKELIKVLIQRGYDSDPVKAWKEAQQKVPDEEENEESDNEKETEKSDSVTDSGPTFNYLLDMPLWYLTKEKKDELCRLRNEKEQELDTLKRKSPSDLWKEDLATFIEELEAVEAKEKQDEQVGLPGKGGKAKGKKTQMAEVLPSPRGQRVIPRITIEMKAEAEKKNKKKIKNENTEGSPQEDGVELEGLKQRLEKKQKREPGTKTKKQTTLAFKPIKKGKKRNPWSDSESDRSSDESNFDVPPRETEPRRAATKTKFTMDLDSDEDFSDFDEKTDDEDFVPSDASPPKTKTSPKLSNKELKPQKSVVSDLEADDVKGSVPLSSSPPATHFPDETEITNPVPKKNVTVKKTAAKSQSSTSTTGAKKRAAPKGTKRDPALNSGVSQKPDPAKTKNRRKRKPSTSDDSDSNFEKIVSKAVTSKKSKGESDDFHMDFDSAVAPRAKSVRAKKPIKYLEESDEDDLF

SMILES	growth inhibition (GI) (A549)	growth inhibition (GI) (PC-3)	growth inhibition (GI) (HL-60)	growth inhibition (GI) (PANC-1)	growth inhibition (GI) (MRC5)	IC50 (DNA topoisomerase 1)	IC50 [1]
C[C@@H]1O[C@H](O[C@@H]2[C@@H](O)[C@H](O[C@H]3CC[C@]4(C)[C@H]5CC=C6[C@@H]7CC(C)(C)CC[C@]7(C(=O)O[C@@H]7O[C@H](CO)[C@@H](O)[C@H](O)[C@H]7O)CC[C@@]6(C)[C@]5(C)CC[C@H]4C3(C)C)O[C@H](C(=O)O)[C@H]2O)[C@H](O)[C@H](O)[C@H]1O	inactive	inactive	inactive	inactive	Not Active		
C/C=C(/C)C(=O)O[C@H]1[C@H](O)C(C)(C)C[C@H]2C3=CC[C@@H]4[C@@]5(C)CC[C@H](O[C@@H]6O[C@H](C(=O)O)[C@@H](O)[C@H](O[C@@H]7OC[C@@H](O)[C@H](O)[C@H]7O)[C@H]6O[C@@H]6O[C@H](CO)[C@@H](O)[C@H](O)[C@H]6O)C(C)(C)[C@@H]5CC[C@@]4(C)[C@]3(C)C[C@@H](O)[C@]21CO [ERYNGIOSIDE F]	inactive	inactive	inactive	inactive	Not Active	> 250 µM	> 250 µM
C/C=C(/C)C(=O)O[C@H]1[C@H](O)C(C)(C)C[C@H]2C3=CC[C@@H]4[C@@]5(C)CC[C@H](O[C@@H]6O[C@H](C(=O)O)[C@@H](O)[C@H](O[C@@H]7OC[C@@H](O)[C@H](O)[C@H]7O)[C@H]6O[C@@H]6O[C@H](CO)[C@@H](O)[C@H](O)[C@H]6O)C(C)(C)[C@@H]5CC[C@@]4(C)[C@]3(C)[C@@H](O)[C@@H](O)[C@]21CO [ERYNGIOSIDE E]	inactive	inactive	inactive	inactive	Not Active	> 250 µM	> 250 µM
CC1(C)C[C@H]2C3=CC[C@@H]4[C@@]5(C)CC[C@H](O[C@@H]6O[C@H](C(=O)O)[C@@H](O)[C@H](O[C@@H]7O[C@@H](CO)[C@H](O)[C@H]7O)[C@H]6O[C@@H]6O[C@H](CO)[C@H](O)[C@H](O)[C@H]6O)C(C)(C)[C@@H]5CC[C@@]4(C)[C@]3(C)C[C@@H](O)[C@@]2(CO)[C@@H](O)[C@@H]1O [AESCULIOSIDE IC]	inactive	inactive	inactive	inactive	Not Active		
CC1(C)C[C@H]2C3=CC[C@@H]4[C@@]5(C)CC[C@H](O[C@@H]6O[C@H](C(=O)O)[C@@H](O)[C@H](O[C@@H]7O[C@@H](CO)[C@H](O)[C@H]7O)[C@H]6O)[C@](C)(CO)[C@@H]5CC[C@@]4(C)[C@]3(C)C[C@@H](O)[C@@]2(CO)[C@@H](O)[C@@H]1O [AESCULIOSIDE IE]	inactive	inactive	inactive	inactive	Not Active		
CC1(C)C[C@H]2C3=CC[C@@H]4[C@@]5(C)CC[C@H](O[C@@H]6O[C@H](C(=O)O)[C@@H](O)[C@H](O[C@@H]7O[C@@H](CO)[C@H](O)[C@H]7O)[C@H]6O[C@@H]6O[C@H](CO)[C@@H](O)[C@H](O)[C@H]6O)[C@](C)(CO)[C@@H]5CC[C@@]4(C)[C@]3(C)[C@@H](O)[C@@H](O)[C@@]2(CO)[C@@H](O)[C@@H]1O [AESCULIOSIDE IB]	inactive	inactive	inactive	inactive	Not Active		
C[C@@H]1[C@@H](O)[C@H](O)[C@@H](O[C@H]2CC(C)(C)C[C@H]3C4=CC[C@@H]5[C@@]6(C)CC[C@H](O[C@@H]7O[C@H](CO)[C@@H](O)[C@H](O)[C@H]7O[C@@H]7O[C@H](CO)[C@@H](O)[C@H](O)[C@H]7O[C@@H]7O[C@H](CO)[C@H](O)[C@H](O)[C@H]7O)C(C)(C)[C@@H]6CC[C@@]5(C)[C@]4(C)C[C@@H](O)[C@@]23CO)O[C@H]1CO [ERYNGIOSIDE B]	inactive	inactive	inactive	inactive	Not Active		
CC1(C)C[C@H]2C3=CC[C@@H]4[C@@]5(C)CC[C@H](O[C@@H]6O[C@H](C(=O)O)[C@@H](O)[C@H](O[C@@H]7O[C@@H](CO)[C@H](O)[C@H]7O)[C@H]6O[C@@H]6O[C@H](CO)[C@H](O)[C@H](O)[C@H]6O)C(C)(C)[C@@H]5CC[C@@]4(C)[C@]3(C)[C@@H](O)[C@@H](O)[C@@]2(CO)[C@@H](O)[C@@H]1O [AESCULIOSIDE IA]	inactive	inactive	inactive	inactive	Not Active		
C[C@@H]1[C@@H](O)[C@H](O)[C@@H](O[C@H]2CC(C)(C)C[C@H]3C4=CC[C@@H]5[C@@]6(C)CC[C@H](O[C@@H]7O[C@H](CO)[C@@H](O)[C@H](O)[C@H]7O[C@@H]7O[C@H](CO)[C@@H](O)[C@H](O)[C@H]7O[C@@H]7O[C@H](CO)[C@@H](O)[C@H](O)[C@H]7O)C(C)(C)[C@@H]6CC[C@@]5(C)[C@]4(C)C[C@@H](O)[C@@]23CO)O[C@H]1CO [ERYNGIOSIDE A]	inactive	inactive	inactive	inactive	Not Active		
C[C@@H]1[C@@H](O)[C@H](O)[C@@H](O[C@H]2CC(C)(C)C[C@H]3C4=CC[C@@H]5[C@@]6(C)CC[C@H](O[C@@H]7O[C@H](CO)[C@@H](O)[C@H](O)[C@H]7O[C@@H]7O[C@H](CO)[C@@H](O)[C@H](O)[C@H]7O[C@@H]7O[C@H](CO)[C@@H](O)[C@H](O)[C@H]7O)C(C)(C)[C@@H]6CC[C@@]5(C)[C@]4(C)CC(=O)[C@@]23CO)O[C@H]1CO [ERYNGIOSIDE C]	inactive	inactive	inactive	inactive	Not Active		
C[C@@H]1O[C@H](O[C@H]2CC[C@]3(C)[C@H]4CC=C5[C@@H]6CC(C)(C)CC[C@]6(C(=O)O[C@@H]6O[C@H](CO)[C@@H](O)[C@H](O)[C@H]6O)CC[C@@]5(C(=O)O)[C@]4(C)CC[C@H]3C2(C)C)[C@@H](O)[C@H](O)[C@H]1O	inactive	inactive	inactive	inactive	Not Active		
CC1(C)C[C@H]2C3=CC[C@@H]4[C@@]5(C)CC[C@H](O)C(C)(C)[C@@H]5CC[C@@]4(C)[C@]3(C)C[C@@H](O)[C@@]2(CO)[C@@H](O)[C@@H]1O [BARRINGTOGENOL C]	inactive	inactive	inactive	inactive	Not Active		
